111 compounds from a melting point compilation (Tetko et al.) can be followed below.

For orientation: melting point means the temperature of the solid-liquid transition. In turn, `Oc1ccc2ccccc2c1CN1CCCCC1` registered a melting point of 93 to 94 °C.

The compound `c1ccc2cc3cc4cc5ccccc5cc4cc3cc2c1` returned a melting point of 300 °C.

On to `C[Si](Cn1cncn1)(c1ccc(F)cc1)c1ccc(F)cc1`, for which the melting point came out at 54 °C.

As for `COc1cccc(CO)c1OC`, the melting point was 48 to 51 °C.

As for `Fc1c(F)c(Cl)c(F)c(F)c1S`, the melting point lay within 47 to 52 °C.

With `COC(=O)C1C2(C)C=CC(O2)C1(OC)OC` (stereo unspecified), the melting point fell in the range of 60 to 62 °C.

Compound `CC(=O)Oc1c(C)cc(O)c(C)c1C` returned a melting point of 108 to 109 °C.

`C=C1CC23CC1(O)CCC2C12C=CC(O)C(C)(C(=O)O1)C2C3C(=O)O` (stereo unspecified) returned a melting point of 227 °C.

On to `CC(C)CN1C(=O)N2CCc3ccccc3C2(c2ccc(Cl)cc2)C1=O` (stereo unspecified), for which the melting point was in the range of 120 to 121 °C.

For the compound `c1ccc(SCSc2ccccc2)cc1`, the melting point came out at 37 °C.

For the compound `Clc1cc(I)ccn1`, the melting point came out at 43 °C.

In the case of `Cc1ccc2c(c1)C(=O)c1cc(C)ccc1C2=O`, the melting point came to 163 °C.

`CCCC(CC(OCC)OCC)OCC` (stereo unspecified): the melting point is -100 °C.

In turn, `O=P(c1ccccc1)(c1ccccc1)C1CCCCC1` registered a melting point of 166 °C.

Turning to `CC=C(C)C(=O)O`, the melting point was found to be 64.5 °C.

As to `CC(C)(C)c1cc(C(C)(C)C)c(N=O)c(C(C)(C)C)c1`, the melting point lay within 170 to 173 °C.

`N#Cc1ccc2cccc(O)c2n1`: the melting point was in the range of 131 to 136 °C.

For `C/C=C/C(=O)NNc1ccccc1`, the melting point was 190 °C.

For `CNCc1ccc(N2CCOCC2)s1`, the melting point lay within 38 to 39 °C.

`COc1ccc(OC(C)=O)cc1` had a melting point of 32 °C.

`c1ccc2c(c1)c1cccc3c4c5ccccc5c5cccc(c2c13)c54` displayed a melting point of 305 °C.

`OC(c1ccccc1)c1ccc(Br)cc1` (stereo unspecified) registered a melting point of 61 to 63 °C.

`C=C1CC(=O)O1` returned a melting point of -6.5 °C.

For the compound `CN(C)c1ccc2cc3ccc(N(C)C)cc3nc2c1`, the melting point worked out at 165 °C.

For `COc1ccc(-c2nnc3n2NC(c2ccc(Cl)cc2)S3)cc1` (stereo unspecified), the melting point stood at 160 °C.

In turn, `Nc1c(F)c(F)c(-c2c(F)c(F)c(N)c(F)c2F)c(F)c1F` displayed a melting point of 175 to 179 °C.

Regarding `O=[N+]([O-])c1ccc(OC2OC(CO)C(O)C(O)C2O)cc1` (stereo unspecified), the melting point stood at 211 °C.

`CC=C1CC(C)C(O)(CO)C(=O)OCC2=CCN3CCC(OC1=O)C23` (stereo unspecified): the melting point worked out at 212 °C.

`COc1cc(NC(=S)Nc2ccc(Br)cc2)c(C(c2ccc(C)o2)c2ccc(C)o2)cc1OC` came in with a melting point of 167 °C.

The compound `NC(=O)c1cnccc1/C=C/c1ccccc1` returned a melting point of 200 °C.

`O=C(C(=S)Nc1ccc(Cl)cc1)c1ccccc1` came in with a melting point of 222 to 223 °C.

For `FC=C(F)F`, the melting point is -78 °C.

Consider `Cc1cc(C)c(C)c(S(=O)(=O)NCC(=O)O)c1C`, for which the melting point is 167 °C.

In turn, `ON=C1CCCc2ccccc21` registered a melting point of 103 to 105 °C.

Consider `CC(=O)c1ccc(S(=O)(=O)NC(=O)NC2CCCCC2)cc1`, for which the melting point amounted to 188 °C.

The compound `Cc1ccc2c(c1)C1C(C3C2C2(Cl)C(Cl)=C(Cl)C3(Cl)C2(Cl)Cl)C2(Cl)C(Cl)=C(Cl)C1(Cl)C2(Cl)Cl` (stereo unspecified) gave a melting point of 160 to 165 °C.

In turn, `COc1cccc2cccnc12` returned a melting point of 49.5 °C.

On to `O=C(Cl)c1cc(C(=O)Cl)c([N+](=O)[O-])cc1[N+](=O)[O-]`, for which the melting point came out at 107 °C.

For `NC(=O)c1ccc(F)cc1Cl`, the melting point lay within 152 to 154 °C.

With `Clc1ccc(C=NCCN=Cc2ccc(Cl)cc2)cc1`, the melting point was found to be 125 °C.

For `C=Cc1c(SC)sc(C(=O)O)c1C`, the melting point lay within 172 to 174 °C.

`O=C1Cc2cccc3cccc1c23` yielded a melting point of 121 °C.

For the compound `BrC1(c2ccccc2)c2ccccc2-c2ccccc21`, the melting point was determined as 97 °C.

Compound `O=C(Oc1ccccc1)c1ccc(O)cc1` yielded a melting point of 176 to 178 °C.

Take `IC=CI`: the melting point was -14 °C.

In turn, `Cc1ccc(-n2c(=O)cc(C)n2C)cc1` yielded a melting point of 130 to 137 °C.

As for `Cn1c2ccccc2n2c(=O)c3cccnc3c(C#N)c12`, the melting point was 292 to 293 °C.

`N#Cc1c(O)ccc([N+](=O)[O-])c1O` yielded a melting point of 239 to 240 °C.

Take `c1ccc2c(c1)Cc1ccccc1S2`: the melting point came out at 128 °C.

The compound `O=C(O)C(F)(F)C(F)(F)C(F)(F)C(F)(F)C(F)(F)F` came in with a melting point of 10 °C.

Consider `CCCCc1ccc(N=Cc2ccc(C=Nc3ccc(CCCC)cc3)cc2)cc1`, for which the melting point turned out to be 232 °C.

On to `COc1ccc2oc(C(=O)O)cc2c1`, for which the melting point was in the range of 212 to 214 °C.

The compound `Brc1ccc(Oc2c(Br)c(Br)c(Br)c(Br)c2Br)cc1` registered a melting point of 184 °C.

As for `CCc1ccc(C#Cc2ccc(C)cc2)cc1`, the melting point is 73 °C.

`Cc1cccc(NC(=O)C(C(F)(F)F)(C(F)(F)F)C(F)(F)F)c1`: the melting point stood at 188 °C.

With `NCCCOCCCCOCCCN`, the melting point stood at 4.5 °C.

Compound `O=C(O)[C@@H]1Cc2ccccc2CN1C(=O)OCc1ccccc1` came in with a melting point of 137 to 141 °C.

`NC(=O)COc1ccccc1` showed a melting point of 102 °C.

As for `O=C(Nc1ccc(F)cc1)c1cccc(Oc2cccc(C(F)(F)F)c2)n1`, the melting point is 107 °C.

`O=[N+]([O-])c1cccc(-c2noc(CCl)n2)c1` registered a melting point of 60 to 62 °C.

In turn, `Cc1cccc(S)c1` came in with a melting point of -20 °C.

In turn, `CN(C)C(=O)Cl` registered a melting point of -33 °C.

In turn, `CCO[Si](CCCNC(=O)c1ccc([N+](=O)[O-])cc1)(OCC)OCC` had a melting point of 55 °C.

`CC/C=C\C/C=C\C/C=C\CCCCCCCC(=O)O` yielded a melting point of -16.5 °C.

`O=C(O)c1ccc(C(=O)O)c2c(C(=O)O)ccc(C(=O)O)c12` had a melting point of 320 °C.

As to `CC(C)C(c1ccccc1)C(C)C`, the melting point was -24.5 °C.

With `O=C1c2ccccc2C(=O)C1(CN1CCOCC1)c1ccccc1`, the melting point is 88 °C.

On to `CCNC(=O)C(C)OC(=O)Nc1ccccc1` (stereo unspecified), for which the melting point was found to be 119 °C.

In turn, `N#Cc1ccc(S(N)(=O)=O)cc1` showed a melting point of 170 °C.

`Fc1cccc(F)c1CBr` gave a melting point of 51 to 55 °C.

In the case of `C=CC1CN2CCC1CC2C12Nc3ccccc3C1(O)CCO2` (stereo unspecified), the melting point was 186 °C.

`CC(=O)C1(C)CCC2C3C=C(C)C4=CC(=O)CCC4(C)C3CCC21C` (stereo unspecified) came in with a melting point of 144 °C.

Turning to `FC(F)(F)C(F)(Br)C(F)(F)Br` (stereo unspecified), the melting point is -95 °C.

`CCCCCCCCc1ccc(NC(=O)c2ccc(OC)cc2)cc1` gave a melting point of 132 °C.

On to `CC(C)(C)N=C=O`, for which the melting point was 85.5 °C.

`CCOc1cccc(-c2ccccc2)c1` displayed a melting point of 35 °C.

Consider `CNC(=S)NCc1ccccc1`, for which the melting point turned out to be 75 °C.

`CCOc1c(NCc2ccccc2)c(=O)c1=O` registered a melting point of 68 to 72 °C.

Compound `O=C(O)c1ccc(C(=O)O)c(OC(F)(F)F)c1` returned a melting point of 270 to 272 °C.

The compound `Cc1nn(C)c2c(N)ncnc12` yielded a melting point of 238 °C.

The compound `CC(CCC(=O)O)n1nnc2ccccc21` (stereo unspecified) had a melting point of 86 °C.

In the case of `OC(c1ccc(Br)cc1)C1CC1` (stereo unspecified), the melting point fell in the range of 57 to 57.5 °C.

As for `CC12CCC(/C(=C\Nc3ccccc3C(=O)O)C1=O)C2(C)C` (stereo unspecified), the melting point came out at 176 °C.

Turning to `Clc1cc(Cl)c2cc(Cl)cc(Cl)c2c1`, the melting point worked out at 180 °C.

As for `COC(=O)c1ccc2c(c1)OCO2`, the melting point came to 53 °C.

With `O=Cc1ccc(O)c(Cl)c1`, the melting point is 139 °C.

`Cc1ccc(C(c2ccc(C)o2)c2cc(Br)cc(Br)c2O)o1` registered a melting point of 88 °C.

The compound `CC(=O)c1cc(Br)c(O)c(Br)c1` yielded a melting point of 174 to 183 °C.

For the compound `O=C(NC(=O)c1ccccc1)c1ccccc1`, the melting point was determined as 152 °C.

In the case of `FC(F)(F)C(F)(F)C(F)(F)C(F)(F)C(F)(F)C(F)(F)OC(F)(F)C(F)(F)C(F)(F)C(F)(F)C(F)(F)C(F)(F)F`, the melting point was -90 °C.

Compound `Cc1ccc(S(=O)(=O)NC(=O)NC2CCCCC2)cc1` had a melting point of 175 °C.

Turning to `CCCC(C(N)=O)n1nnc2ccccc21` (stereo unspecified), the melting point was found to be 125 °C.

Take `COc1ccc(OCC(N)=S)cc1`: the melting point lay in the range of 113 to 114 °C.

The compound `CCOC(O)C(Cl)(Cl)Cl` (stereo unspecified) returned a melting point of 56.5 °C.

`c1coc(CSCc2ccco2)c1` showed a melting point of 31 °C.

`O=C(O)CC(CC(=O)O)c1ccc(C(F)(F)F)cc1` registered a melting point of 166 to 168 °C.

As for `CC(=O)c1csc(-c2ccc(C(F)(F)F)cc2)n1`, the melting point stood at 66 °C.

Compound `O=C(C=Cc1ccccc1)c1cccs1` had a melting point of 76 to 78 °C.

Compound `Cc1cc(Br)c(N)c(C(=O)O)c1` had a melting point of 204 °C.

Regarding `Nc1ccc(Cc2ccc(N)c(Cl)c2)cc1Cl`, the melting point came out at 110 °C.

The compound `O=[N+]([O-])c1cc(O)ccc1I` had a melting point of 153 to 159 °C.

In turn, `CC(=O)OCCC(C)C` came in with a melting point of -78.5 °C.

`CC1CC2(C)C(CCC3C4CCC(O)C4(C)CCC32)CC1=O` (stereo unspecified) gave a melting point of 151 °C.

With `CCCCCCCC(=O)c1ccc(NC(C)=O)cc1`, the melting point turned out to be 123 °C.

`CCCCC(C(N)=O)n1nc2ccccc2n1` (stereo unspecified) came in with a melting point of 102 °C.

The compound `Clc1nccc(-c2cccs2)n1` gave a melting point of 127 to 129 °C.

`CC(=O)OCC(=O)C12N=C(C)OC1CC1C3CCC4=CC(=O)C=CC4(C)C3C(O)CC12C` (stereo unspecified) returned a melting point of 256 °C.

`SCCCS` showed a melting point of -79 °C.

The compound `COc1c(Cl)c(Cl)c(O)c(Cl)c1Cl` had a melting point of 116 °C.

The compound `CCOC(=O)CSCCC1NC(C(=O)O)CS1` (stereo unspecified) gave a melting point of 142 °C.

`CC(Cl)(Cl)C(=O)O` gave a melting point of -5 °C.
